What was measured:
[1] = test system: Sirt3^-/--MT-SIRT3^DN allografts; assay: Sirt3-/--MT-SIRT3^DN mammary allograft tumor growth (bioluminescence); assay type: in vivo; details: GC4419 by IP every other day for five weeks; compared to control mice
Experimental: FIGS. 29a-29b are plots showing that the growth of murine mammary allograft tumors is inhibited by exposure to the MnSOD mimic GC4419 much more in cells without expression of deacetylation competent SIRT3. […] Mice were subsequently injected with luciferin potassium (120 mg/kg) every week and signal intensity will be quantified. Error bars represent one SD from the mean.
These cell lines were subsequently infected with and selected to express either a SIRT3 wild-type (Sirt3^-/--MT-SIRT3^WT) or deacetylation activity null (Sirt3^-/--MT-SIRT3^DN) gene and a lenti-luciferase to assess tumor growth by bioluminescence. Allograft tumor mice were split into four groups: (1) control, untreated Sirt3^-/--MT-SIRT3^DN; (2) GC4419 treated Sirt3^-/--MT-SIRT3^DN; (3) control, untreated Sirt3^-/--MT-SIRT3^WT; and (4) GC4419 treated Sirt3^-/--MT-SIRT3^WT. […] Accordingly, it was shown that the growth of murine mammary allograft tumors is inhibited by pharmacologically mimicking the activity of deacetylated lysine 68 MnSOD with a manganese pentaazamacrocyclic dismutase mimetic much more in tumors without deacetylation competent SIRT3. Further, this supports that selection of tumors displaying an AcK68 signature could increase response to treatment with a MnPAM dismutase mimetic (or other methods) alone or in combination with other therapies.

MCF7-HTR cells = assay: Ki-67 staining in MCF7-HTR cells; assay type: cell-based, human; details: 5 µM GC4419 for 5 days
Text: With respect to FIG. 16a, the data from FIG. 7i, where MCF7-HTR cells were stained for Ki-67, as well as DAPI, were counted with ImageJ and quantified for average Ki-67 intensity as shown in the bar graph. With respect to FIGS. 16b and 16c, T47D and T47D-HTR cells were stained for Ki-67 as well as DAPI, and particles in the nucleus were counted with ImageJ and quantified for average Ki-67 intensity as shown in the bar graph. In FIGS. 16d and 16e, MCF7-HTR cells, and in FIGS. 16f and 16g, T47D-HTR cells, were treated with 5 µM GC4419 and/or 1 µM 4-hydroxy-Tam for 5 days, and then stained for Ki-67 as well as DAPI. Quantifications of average Ki-67 intensity are shown in the bar graphs. All experiments were done in triplicate. Error bars represent ± 1 SEM. ***p < 0.001. Representative images are shown.
Cells seeded on glass coverslips were fixed in 4% paraformaldehyde and then blocked with 1% BSA and 10% normal goat serum in 1x PBS. Cells were incubated with anti-Ki-67 (c-bioscience) antibody in 1x PBS followed by incubation with goat anti-rabbit IgG conjugated with Alexa Fluor 647 (Invitrogen) in 1x PBS with 5% goat serum. Cells were washed in 1x PBS, mounted, and imaged with a fluorescence microscope. Fluorescence images were captured using a laser scanning confocal microscope (Nikon A1 R). The paired images in all the figures were collected at the same gain and offset settings. […]

With [Cl][Mn][Cl].c1cc2nc(c1)CN[C@H]1CCCC[C@@H]1NCCN[C@H]1CCCC[C@@H]1NC2 [GC4419] the tumor growth [1] was “significant decrease in tumor growth” and the “Ki-67 IHC staining” value (MCF7-HTR cells) was “decreased Ki-67 IHC staining”.
